Source: publication PMC6364417, “Kinase inhibitor library screening identifies synergistic drug combinations effective in sensitive and resistant melanoma cells” (Journal of Experimental & Clinical Cancer Research : CR, 2019)

Columns and labels:
Assay in all cases: Kinase inhibitor library screening, PrestoBlue cell viability, 1 or 10 μM, 72 h
[1] = test system: A375-GP cells (Dabrafenib-resistant); settings: for Cell viability in kinase inhibitor library screening, A375 GP, 1μΜ / Cell viability in kinase inhibitor library screening, A375 GP, 10μΜ / cell viability (kinase inhibitor library screening): 72 h, A375 GP; for viability at 1 µM / viability at 10 µM: Homo sapiens, A-375, 72 h; for viability at 1 µM: read-out: cell viability, A375 GP, 1μΜ; for viability at 10 µM: read-out: cell viability, A375 GP, 10μΜ
Experimental: (§1) After 72 h of treatment, cell viability was assessed using the PrestoBlue Cell Viability Reagent (ThermoFisher Scientific). Measurements were performed with the CLARIOstar Monochromator microplate reader (BMG Labtech).
(§2) Kinase inhibitor library screening. […] Each cell line was treated in its sensitive form (parental), and also as 2 resistant derivatives, which were made resistant to either Vemurafenib (XP) or Dabrafenib (GP). Drugs were added at 2 different concentrations, 1 and 10 μM, for 72 h and cell viability was assessed using the PrestoBlue Cell Viability assay. Results are depicted as % viability compared to untreated cells. Each cell line was analyzed at least in duplicate. […] (XLSX 95 kb)

[2] = test system: IGR37 cells (parental); settings: for Cell viability in kinase inhibitor library screening, IGR37 Parental, 1μΜ / Cell viability in kinase inhibitor library screening, IGR37 Parental, 10μΜ / cell viability (kinase inhibitor library screening): 72 h, IGR37 Parental; for Cell viability in kinase inhibitor library screening, IGR37 Parental, 1μΜ / Cell viability in kinase inhibitor library screening, IGR37 Parental, 10μΜ: in %; for viability at 1 µM / viability at 10 µM: Homo sapiens, IGR-37, 72 h; for viability at 1 µM: read-out: cell viability, IGR37 Parental, 1μΜ; for viability at 10 µM: read-out: cell viability, IGR37 Parental, 10μΜ
Experimental: as §1, §2

[3] = test system: A375 cells (parental); settings: for Cell viability in kinase inhibitor library screening, A375 Parental, 10μΜ / Cell viability in kinase inhibitor library screening, A375 Parental, 1μΜ / cell viability (kinase inhibitor library screening): 72 h, A375 Parental; for viability at 1 µM / viability at 10 µM: Homo sapiens, A-375, 72 h; for viability at 1 µM: read-out: cell viability, A375 Parental, 1μΜ; for viability at 10 µM: read-out: cell viability, A375 Parental, 10μΜ
Experimental: as §1, §2

[4] = test system: A375-XP cells (Vemurafenib-resistant); settings: for viability at 1 µM / viability at 10 µM: Homo sapiens, A-375, 72 h; for viability at 1 µM: read-out: cell viability, A375 XP, 1μΜ; for viability at 10 µM: read-out: cell viability, A375 XP, 10μΜ
Experimental: as §1, §2

[5] = test system: 501Mel-GP cells (Dabrafenib-resistant); settings: 72 h; for viability at 1 µM / viability at 10 µM: Homo sapiens; for viability at 1 µM: read-out: cell viability, 501Mel GP, 1μΜ; for viability at 10 µM: read-out: cell viability, 501Mel GP, 10μΜ
Experimental: as §1, §2

[6] = test system: 501Mel cells (parental); settings: 72 h; for Cell viability in kinase inhibitor library screening, 501Mel Parental, 1μΜ / Cell viability in kinase inhibitor library screening, 501Mel Parental, 10μΜ: in %; for viability at 1 µM / viability at 10 µM: Homo sapiens; for viability at 1 µM: read-out: cell viability, 501Mel Parental, 1μΜ; for viability at 10 µM: read-out: cell viability, 501Mel Parental, 10μΜ; for Cell viability in kinase inhibitor library screening, 501Mel Parental, 1μΜ / Cell viability in kinase inhibitor library screening, 501Mel Parental, 10μΜ / cell viability (kinase inhibitor library screening): 501Mel Parental
Experimental: as §1, §2

[7] = test system: 501Mel-XP cells (Vemurafenib-resistant); settings: 72 h; for Cell viability in kinase inhibitor library screening, 501Mel XP, 1μΜ / Cell viability in kinase inhibitor library screening, 501Mel XP, 10μΜ: in %; for viability at 1 µM / viability at 10 µM: Homo sapiens; for viability at 1 µM: read-out: cell viability, 501Mel XP, 1μΜ; for viability at 10 µM: read-out: cell viability, 501Mel XP, 10μΜ; for Cell viability in kinase inhibitor library screening, 501Mel XP, 1μΜ / Cell viability in kinase inhibitor library screening, 501Mel XP, 10μΜ / cell viability (kinase inhibitor library screening): 501Mel XP
Experimental: as §1, §2

[8] = test system: IGR37-XP cells (Vemurafenib-resistant); settings: for Cell viability in kinase inhibitor library screening, IGR37 XP, 1μΜ: in %; for viability at 1 µM / viability at 10 µM: Homo sapiens, IGR-37, 72 h; for viability at 1 µM: read-out: cell viability, IGR37 XP, 1μΜ; for viability at 10 µM: read-out: cell viability, IGR37 XP, 10μΜ
Experimental: as §1, §2

[9] = test system: IGR37-GP cells (Dabrafenib-resistant); settings: for Cell viability in kinase inhibitor library screening, IGR37 GP, 10μΜ / Cell viability in kinase inhibitor library screening, IGR37 GP, 1μΜ / cell viability (kinase inhibitor library screening): 72 h, IGR37 GP; for Cell viability in kinase inhibitor library screening, IGR37 GP, 1μΜ: in %; for viability at 1 µM / viability at 10 µM: Homo sapiens, IGR-37, 72 h; for viability at 1 µM: read-out: cell viability, IGR37 GP, 1μΜ; for viability at 10 µM: read-out: cell viability, IGR37 GP, 10μΜ
Experimental: as §1, §2

O=C1NC(=O)/C(=C\c2ccc3nccnc3c2)S1 [AS-605240]
Cell viability in kinase inhibitor library screening, A375 GP, 1μΜ ([1]; 1μΜ): 97.7
Cell viability in kinase inhibitor library screening, A375 GP, 10μΜ ([1]; 10μΜ): 71.1
Cell viability in kinase inhibitor library screening, IGR37 Parental, 1μΜ ([2]; 1μΜ): 99.2
Cell viability in kinase inhibitor library screening, IGR37 Parental, 10μΜ ([2]; 10μΜ): 94.0
Cell viability in kinase inhibitor library screening, A375 Parental, 10μΜ ([3]; 10μΜ): 76.5
Cell viability in kinase inhibitor library screening, A375 Parental, 1μΜ ([3]; 1μΜ): 99.1
Cell viability in kinase inhibitor library screening, A375 XP, 10μΜ ([4]; A375 XP, 10μΜ, 72 h): 81.1
Cell viability in kinase inhibitor library screening, 501Mel GP, 1μΜ ([5]; 501Mel GP, 1μΜ, in %): 107.4
Cell viability in kinase inhibitor library screening, 501Mel GP, 10μΜ ([5]; 501Mel GP, 10μΜ, in %): 73.8
Cell viability in kinase inhibitor library screening, 501Mel Parental, 1μΜ ([6]; 1μΜ): 104.7
Cell viability in kinase inhibitor library screening, 501Mel Parental, 10μΜ ([6]; 10μΜ): 92.3
Cell viability in kinase inhibitor library screening, 501Mel XP, 1μΜ ([7]; 1μΜ): 98.5
Cell viability in kinase inhibitor library screening, 501Mel XP, 10μΜ ([7]; 10μΜ): 72.2
Cell viability in kinase inhibitor library screening, IGR37 XP, 1μΜ ([8]; IGR37 XP, 1μΜ, 72 h): 98.2
Cell viability in kinase inhibitor library screening, IGR37 GP, 10μΜ ([9]; 10μΜ): 70.4%
Cell viability in kinase inhibitor library screening, IGR37 GP, 1μΜ ([9]; 1μΜ): 91.2

C=CC(=O)Nc1ccc2ncnc(Nc3ccc(OCc4cccc(F)c4)c(Cl)c3)c2c1 [AST-1306]
viability at 1 µM [1]: 85.4%
viability at 10 µM [1]: 0.6%
viability at 1 µM [2]: 99.8%
viability at 10 µM [2]: 1.8%
viability at 1 µM [3]: 95%
viability at 10 µM [3]: 2.9%
viability at 1 µM [4]: 90.9%
viability at 10 µM [4]: 0.8%
viability at 1 µM [5]: 103%
viability at 10 µM [5]: 2.3%
viability at 1 µM [6]: 94.1%
viability at 10 µM [6]: 3%
viability at 1 µM [7]: 89.2%
viability at 10 µM [7]: -0.162%
viability at 1 µM [8]: 72.8%
viability at 10 µM [8]: 1.1%
viability at 1 µM [9]: 87.4%
viability at 10 µM [9]: 2.2%

Clc1ccc(C2(c3ccc(-c4cn[nH]c4)cc3)CCNCC2)cc1 [AT7867]
cell viability (kinase inhibitor library screening) ([1]; 1μΜ): 82.8%
cell viability (kinase inhibitor library screening) ([1]; 10μΜ): 43.6%
cell viability (kinase inhibitor library screening) ([2]; 1μΜ): 98.1%
cell viability (kinase inhibitor library screening) ([2]; 10μΜ): 84.9%
cell viability (kinase inhibitor library screening) ([3]; 10μΜ): 58.0%
cell viability (kinase inhibitor library screening) ([3]; 1μΜ): 97.2%
cell viability (kinase inhibitor library screening) ([4]; A375 XP, 1μΜ, 72 h): 99.3%
cell viability (kinase inhibitor library screening) ([4]; A375 XP, 10μΜ, 72 h): 63.1%
cell viability (kinase inhibitor library screening) ([5]; 501Mel GP, 1μΜ): 93.8%
cell viability (kinase inhibitor library screening) ([5]; 501Mel GP, 10μΜ): 20.5%
cell viability (kinase inhibitor library screening) ([6]; 1μΜ): 93.0%
cell viability (kinase inhibitor library screening) ([6]; 10μΜ): 5.4%
cell viability (kinase inhibitor library screening) ([7]; 1μΜ): 81.2%
cell viability (kinase inhibitor library screening) ([7]; 10μΜ): 0.172%
cell viability (kinase inhibitor library screening) ([8]; IGR37 XP, 1μΜ, 72 h): 105.4%
cell viability (kinase inhibitor library screening) ([8]; IGR37 XP, 10μΜ, 72 h): 42.3%
cell viability (kinase inhibitor library screening) ([9]; 1μΜ): 89.7%
cell viability (kinase inhibitor library screening) ([9]; 10μΜ): 78.9%

O=C(Nc1c[nH]nc1-c1nc2ccc(CN3CCOCC3)cc2[nH]1)NC1CC1 [AT9283]
cell viability (kinase inhibitor library screening) ([1]; 1μΜ): 32.2%
cell viability (kinase inhibitor library screening) ([1]; 10μΜ): 3.3%
cell viability (kinase inhibitor library screening) ([2]; 1μΜ): 90.9%
cell viability (kinase inhibitor library screening) ([2]; 10μΜ): 1.1%
cell viability (kinase inhibitor library screening) ([3]; 10μΜ): 6.2%
cell viability (kinase inhibitor library screening) ([3]; 1μΜ): 27.1%
cell viability (kinase inhibitor library screening) ([4]; A375 XP, 1μΜ, 72 h): 38.4%
cell viability (kinase inhibitor library screening) ([4]; A375 XP, 10μΜ, 72 h): 9.8%
cell viability (kinase inhibitor library screening) ([5]; 501Mel GP, 1μΜ): 72.2%
cell viability (kinase inhibitor library screening) ([5]; 501Mel GP, 10μΜ): 0.469%
cell viability (kinase inhibitor library screening) ([6]; 1μΜ): 67.5%
cell viability (kinase inhibitor library screening) ([6]; 10μΜ): 2.0%
cell viability (kinase inhibitor library screening) ([7]; 1μΜ): 63.4%
cell viability (kinase inhibitor library screening) ([7]; 10μΜ): 0.184%
cell viability (kinase inhibitor library screening) ([8]; IGR37 XP, 1μΜ, 72 h): 82.7%
cell viability (kinase inhibitor library screening) ([8]; IGR37 XP, 10μΜ, 72 h): 1.5%
cell viability (kinase inhibitor library screening) ([9]; 1μΜ): 97.8%
cell viability (kinase inhibitor library screening) ([9]; 10μΜ): 3.7%

Cc1ccc(NC(=O)c2cccc(C(C)(C)C#N)c2)cc1Nc1ccc2ncn(C)c(=O)c2c1 [AZ628]
Cell viability in kinase inhibitor library screening, A375 GP, 1μΜ ([1]; 1μΜ): 19.6
Cell viability in kinase inhibitor library screening, A375 GP, 10μΜ ([1]; 10μΜ): 21.0
Cell viability in kinase inhibitor library screening, IGR37 Parental, 1μΜ ([2]; 1μΜ): 45.5
Cell viability in kinase inhibitor library screening, IGR37 Parental, 10μΜ ([2]; 10μΜ): 41.8
Cell viability in kinase inhibitor library screening, A375 Parental, 10μΜ ([3]; 10μΜ): 23.0
Cell viability in kinase inhibitor library screening, A375 Parental, 1μΜ ([3]; 1μΜ): 26.2
Cell viability in kinase inhibitor library screening, A375 XP, 1μΜ ([4]; A375 XP, 1μΜ, 72 h): 20.4
Cell viability in kinase inhibitor library screening, A375 XP, 10μΜ ([4]; A375 XP, 10μΜ, 72 h): 13.2
Cell viability in kinase inhibitor library screening, 501Mel GP, 10μΜ ([5]; 501Mel GP, 10μΜ, in %): 83.3
Cell viability in kinase inhibitor library screening, 501Mel Parental, 1μΜ ([6]; 1μΜ): 59.7
Cell viability in kinase inhibitor library screening, 501Mel Parental, 10μΜ ([6]; 10μΜ): 64.1
Cell viability in kinase inhibitor library screening, 501Mel XP, 1μΜ ([7]; 1μΜ): 116.3
Cell viability in kinase inhibitor library screening, 501Mel XP, 10μΜ ([7]; 10μΜ): 79.0
Cell viability in kinase inhibitor library screening, IGR37 XP, 10μΜ ([8]; IGR37 XP, 10μΜ, 72 h): 15.2%
Cell viability in kinase inhibitor library screening, IGR37 XP, 1μΜ ([8]; IGR37 XP, 1μΜ, 72 h): 60.5
Cell viability in kinase inhibitor library screening, IGR37 GP, 10μΜ ([9]; 10μΜ): 55.7%
Cell viability in kinase inhibitor library screening, IGR37 GP, 1μΜ ([9]; 1μΜ): 78.8

Cc1cc(Nc2nc(N[C@@H](C)c3ccc(F)cc3)c(C#N)cc2F)[nH]n1 [AZ 960]
viability at 1 µM [1]: 44%
viability at 10 µM [1]: 37.8%
viability at 1 µM [2]: 83.9%
viability at 10 µM [2]: 90.7%
viability at 1 µM [3]: 48.9%
viability at 10 µM [3]: 40%
viability at 1 µM [4]: 61.3%
viability at 10 µM [4]: 46.1%
viability at 1 µM [5]: 34.2%
viability at 10 µM [5]: 66.8%
viability at 1 µM [6]: 49.1%
viability at 10 µM [6]: 65.1%
viability at 1 µM [7]: 39.4%
viability at 10 µM [7]: 60.4%
viability at 1 µM [8]: 81.1%
viability at 10 µM [8]: 39.7%
viability at 1 µM [9]: 87.2%
viability at 10 µM [9]: 73.9%
